Measured values reported in patent US9296741B2, “Bromodomain inhibitors” (priority 2012, dated 2016).
Read-outs that look alike come from different tables or passages of the source.

Columns and labels:
[1] = Rat liver microsome stability assay; type: in vitro ADME; conditions: for half-life at 0.5 μM: rat liver microsomes (male Sprague-Dawley), 0.5 μM test compound, 0.25 mg/mL microsomal protein, pH 7.4, 37° C., read-out: Stability in rat liver microsomes (t1/2 in minutes)
[2] = Human liver microsome stability assay; type: in vitro ADME; conditions: human, microsomes, pH 7.4; for half-life at 0.5 μM: both sexes
[3] = molecular target: human BRD4 second bromodomain (BDII_E352-M457) (Homo sapiens (Human), UniProt O60885); assay: TR-FRET bromodomain binding assay, BRD4 second bromodomain
[4] = system: LPS induced IL-6 production; assay: LPS (lipopolysaccharide) induced IL-6 production mouse assay; type: in vivo; conditions: 3 mg/kg oral, 1 h before LPS, serum IL-6 2 h after LPS; for inhibition in vivo at 3 mg/kg: Mus musculus, read-out: Inhibition of LPS induced IL-6 production in Mice, % inhibition at 3 mg/kg
[5] = system: breast cancer cell line MX-1; assay: MX-1 cell line proliferation assay; type: cell-based, human; conditions: MX-1 cells, 3-day proliferation, Cell Titer Glo, read-out: Cellular proliferation: EC50
[6] = molecular target: human BRD4 first bromodomain (BDI_K57-E168) (Homo sapiens (Human), UniProt O60885); assay: TR-FRET bromodomain binding assay, BRD4 first bromodomain
[7] = Mouse liver microsome stability assay; type: in vitro ADME; conditions: microsomes, pH 7.4; for half-life at 0.5 μM: male, CD1, mouse

| Structure (SMILES) | half-life at 0.5 μM [1] [min] | half-life at 0.5 μM [2] [min] | Ki [3] [nM] | EC50 ([5]; Homo sapiens, MX1, 72 h) [nM] | Ki [6] [nM] | half-life at 0.5 μM [7] [min] | Stability in rat liver microsomes (t1/2 in minutes) ([1]; rat, microsomes, pH 7.4) [min] | Stability in human liver microsomes (t1/2 in minutes) [2] [min] | EC50 [5] [nM] | Stability in mouse liver microsomes (t1/2 in minutes) ([7]; mouse) [min] | inhibition in vivo at 3 mg/kg [4] [%] | Inhibition of LPS induced IL-6 production in Mice, % inhibition at 3 mg/kg [4] [%] |
| --- | --- | --- | --- | --- | --- | --- | --- | --- | --- | --- | --- | --- |
| Cn1cc(-c2cc(S(C)(=O)=O)ccc2Oc2ccccc2)c2cc[nH]c2c1=O [Example 85, 6-methyl-4-[5-(methylsulfonyl)-2-phenoxyphenyl]-1,6-dihydro-7H-pyrrolo[2,3-c]pyridin-7-one] | 6 | 43 | 1.7 | 52 | 6.4 | 34 |  |  |  |  | 80 |  |
| Cn1cc(-c2cc(S(C)(=O)=O)ccc2Oc2ccc(F)cc2F)c2cc[nH]c2c1=O [Example 138, 4-[2-(2,4-difluorophenoxy)-5-(methylsulfonyl)phenyl]-6-methyl-1,6-dihydro-7H-pyrrolo[2,3-c]pyridin-7-one] | 51 | 52 | 9.5 | 85.1 | 16.7 | 45 |  |  |  |  | 72 |  |
| CCS(=O)(=O)Nc1ccc(OCC(C)(C)C)c(-c2cn(C)c(=O)c3[nH]ccc23)c1 [Example 144, N-[4-(2,2-dimethylpropoxy)-3-(6-methyl-7-oxo-6,7-dihydro-1H-pyrrolo[2,3-c]pyridin-4-yl)phenyl]ethanesulfonamide] | 19 | 18 | 17.8 | 76.9 | 13.6 | 17 |  |  |  |  | 48 |  |
| Cn1cc(-c2cc(S(C)(=O)=O)ccc2Oc2ccc(Cl)cc2)c2cc[nH]c2c1=O [Example 154, 4-[2-(4-chlorophenoxy)-5-(methylsulfonyl)phenyl]-6-methyl-1,6-dihydro-7H-pyrrolo[2,3-c]pyridin-7-one] | 66 | 42 | 13.1 | 65.5 | 20.8 | 18 |  |  |  |  | 73 |  |
| Cn1nc(-c2cc(NS(C)(=O)=O)ccc2Oc2ccc(F)cc2F)c2cc[nH]c2c1=O [Example 159, N-[4-(2,4-difluorophenoxy)-3-(6-methyl-7-oxo-6,7-dihydro-1H-pyrrolo[2,3-d]pyridazin-4-yl)phenyl]methanesulfonamide] | 107 | 89 | 20.7 | 62.4 | 37 | 59 |  |  |  |  | 58 |  |
| Cn1cc(-c2cc(S(C)(=O)=O)ccc2Oc2ccc3ncccc3c2)c2cc[nH]c2c1=O [Example 162, 6-methyl-4-[5-(methylsulfonyl)-2-(quinolin-6-yloxy)phenyl]-1,6-dihydro-7H-pyrrolo[2,3-c]pyridin-7-one] | 41 | 96 | 4.6 | 127 | 11.1 | 11 |  |  |  |  | 41 |  |
| Cn1cc(-c2cc(S(C)(=O)=O)ccc2Oc2cccc(N)c2)c2cc[nH]c2c1=O [Example 166, 4-[2-(3-aminophenoxy)-5-(methylsulfonyl)phenyl]-6-methyl-1,6-dihydro-7H-pyrrolo[2,3-c]pyridin-7-one] | 23 | 85 | 3.6 | 48.2 | 10.9 | 22 |  |  |  |  | 44 |  |
| Cn1cc(-c2cc(S(C)(=O)=O)ccc2OC2CCOC2)c2cc[nH]c2c1=O (stereo not shown) [Example 205, 6-methyl-4-[5-(methylsulfonyl)-2-(tetrahydrofuran-3-yloxy)phenyl]-1,6-dihydro-7H-pyrrolo[2,3-c]pyridin-7-one] | 81 | > 120 | 10.2 | 39.1 | 6.2 | 118 |  |  |  |  | 48 |  |
| Cn1cc(-c2cc(S(N)(=O)=O)cnc2OCC2CC2)c2cc[nH]c2c1=O [Example 207, 6-(cyclopropylmethoxy)-5-(6-methyl-7-oxo-6,7-dihydro-1H-pyrrolo[2,3-c]pyridin-4-yl)pyridine-3-sulfonamide] | 78 | 102 | 1.8 | 25.1 | 3.1 | 100 |  |  |  |  | 62 |  |
| Cn1cc(-c2cc(S(C)(=O)=O)ccc2OCC2(C)CC2)c2cc[nH]c2c1=O [Example 231, 6-methyl-4-{2-[(1-methylcyclopropyl)methoxy]-5-(methylsulfonyl)phenyl}-1,6-dihydro-7H-pyrrolo[2,3-c]pyridin-7-one] | > 120 | 33 | 6.7 | 6.3 | 3.7 | 72 |  |  |  |  | 51 |  |
| CCS(=O)(=O)c1ccc(OCC2CC2(F)F)c(-c2cn(C)c(=O)c3[nH]ccc23)c1 (stereo not shown) [Example 240, 4-{2-[(2,2-difluorocyclopropyl)methoxy]-5-(ethylsulfonyl)phenyl}-6-methyl-1,6-dihydro-7H-pyrrolo[2,3-c]pyridin-7-one] | > 120 | > 120 | 2.8 | 11.5 | 2 | 47 |  |  |  |  | 62 |  |
| Cn1cc(-c2cc(S(N)(=O)=O)cnc2Oc2ccc(F)cc2F)c2cc[nH]c2c1=O [Example 242, 6-(2,4-difluorophenoxy)-5-(6-methyl-7-oxo-6,7-dihydro-1H-pyrrolo[2,3-c]pyridin-4-yl)pyridine-3-sulfonamide] | 86 | > 120 | 5.8 | 289 | 36.5 | > 120 |  |  |  |  | 46 |  |
| CN(C)S(=O)(=O)c1cnc(NCC2CC2)c(-c2cn(C)c(=O)c3[nH]ccc23)c1 [Example 245, 6-[(cyclopropylmethyl)amino]-N,N-dimethyl-5-(6-methyl-7-oxo-6,7-dihydro-1H-pyrrolo[2,3-c]pyridin-4-yl)pyridine-3-sulfonamide] | 24 | 32 | 3.7 | 26.9 | 2.5 | 12 |  |  |  |  | 71 |  |

These reach a lower Ki [3]. Values come first.

| half-life at 0.5 μM [1] [min] | half-life at 0.5 μM [2] [min] | Ki [3] [nM] | EC50 ([5]; Homo sapiens, MX1, 72 h) [nM] | Ki [6] [nM] | half-life at 0.5 μM [7] [min] | Stability in rat liver microsomes (t1/2 in minutes) ([1]; rat, microsomes, pH 7.4) [min] | Stability in human liver microsomes (t1/2 in minutes) [2] [min] | EC50 [5] [nM] | Stability in mouse liver microsomes (t1/2 in minutes) ([7]; mouse) [min] | Structure (SMILES) | inhibition in vivo at 3 mg/kg [4] [%] | Inhibition of LPS induced IL-6 production in Mice, % inhibition at 3 mg/kg [4] [%] |
| --- | --- | --- | --- | --- | --- | --- | --- | --- | --- | --- | --- | --- |
| 92 | 112 | 0.65 | 231 | 1.67 | > 120 |  |  |  |  | CCS(=O)(=O)Nc1ccc(Oc2ccc(C(N)=O)cc2)c(-c2cn(C)c(=O)c3[nH]ccc23)c1 [Example 84, 4-{4-[(ethylsulfonyl)amino]-2-(6-methyl-7-oxo-6,7-dihydro-1H-pyrrolo[2,3-c]pyridin-4-yl)phenoxy}benzamide] | 69 |  |
| 8 | 11 | 1.1 | 14.8 | 2.1 | 32 |  |  |  |  | Cn1cc(-c2cc(S(C)(=O)=O)ccc2NC2CCCCC2)c2cc[nH]c2c1=O [Example 147, 4-[2-(cyclohexylamino)-5-(methylsulfonyl)phenyl]-6-methyl-1,6-dihydro-7H-pyrrolo[2,3-c]pyridin-7-one] | 61 |  |
| 82 | 66 | 1.3 | 27.7 | 5.4 | 25 |  |  |  |  | CCS(=O)(=O)c1ccc(Oc2ccc(F)cc2F)c(-c2cn(C)c(=O)c3[nH]ccc23)c1 [Example 168, 4-[2-(2,4-difluorophenoxy)-5-(ethylsulfonyl)phenyl]-6-methyl-1,6-dihydro-7H-pyrrolo[2,3-c]pyridin-7-one] | 70 |  |
| 15 | 16 | 0.79 | 11.7 | 1.5 | 10 |  |  |  |  | CCS(=O)(=O)c1ccc(OC2CCC3(CC2)OCCO3)c(-c2cn(C)c(=O)c3[nH]ccc23)c1 [Example 197, 4-[2-(1,4-dioxaspiro[4.5]dec-8-yloxy)-5-(ethylsulfonyl)phenyl]-6-methyl-1,6-dihydro-7H-pyrrolo[2,3-c]pyridin-7-one] | 59 |  |
|  |  | 1.3 |  | 1.8 |  | 67 | 69 | 7.3 | 53 | CCS(=O)(=O)c1ccc(OC2CCC(C)(O)CC2)c(-c2cn(C)c(=O)c3[nH]ccc23)c1 (stereo not drawn) [Example 212, 4-{5-(ethylsulfonyl)-2-[(trans-4-hydroxy-4-methylcyclohexyl)oxy]phenyl}-6-methyl-1,6-dihydro-7H-pyrrolo[2,3-c]pyridin-7-one] |  | 47 |
| > 120 | 103 | 0.78 | 3.3 | 1.1 | 63 |  |  |  |  | Cn1cc(-c2cc(S(N)(=O)=O)ccc2NCC2CC2)c2cc[nH]c2c1=O [Example 238, 4-[(cyclopropylmethyl)amino]-3-(6-methyl-7-oxo-6,7-dihydro-1H-pyrrolo[2,3-c]pyridin-4-yl)benzenesulfonamide] | 69 |  |
